# Legend:
# [1] = target: Serine/threonine-protein kinase 26 (Homo sapiens) (UniProt Q9P289)
# [2] = target: Serine/threonine-protein kinase Chk2 (Homo sapiens, UniProt O96017)
# [3] = target: Casein kinase I isoform gamma-1 (Homo sapiens) (UniProt Q9HCP0)
# [4] = target: Tyrosine-protein kinase JAK1 (Homo sapiens) (UniProt P23458)
# [5] = target: Serine/threonine-protein kinase PLK1 (Homo sapiens) (UniProt P53350)
# [6] = target: Dual specificity protein kinase CLK2 (Homo sapiens) (UniProt P49760)
# [7] = target: Serine/threonine-protein kinase pim-1 (Homo sapiens) (UniProt P11309)
# [8] = target: STE20-like serine/threonine-protein kinase (Homo sapiens) (UniProt Q9H2G2)
# Sequence of STE20-like serine/threonine-protein kinase (Homo sapiens) (Q9H2G2 whole entry, looked up): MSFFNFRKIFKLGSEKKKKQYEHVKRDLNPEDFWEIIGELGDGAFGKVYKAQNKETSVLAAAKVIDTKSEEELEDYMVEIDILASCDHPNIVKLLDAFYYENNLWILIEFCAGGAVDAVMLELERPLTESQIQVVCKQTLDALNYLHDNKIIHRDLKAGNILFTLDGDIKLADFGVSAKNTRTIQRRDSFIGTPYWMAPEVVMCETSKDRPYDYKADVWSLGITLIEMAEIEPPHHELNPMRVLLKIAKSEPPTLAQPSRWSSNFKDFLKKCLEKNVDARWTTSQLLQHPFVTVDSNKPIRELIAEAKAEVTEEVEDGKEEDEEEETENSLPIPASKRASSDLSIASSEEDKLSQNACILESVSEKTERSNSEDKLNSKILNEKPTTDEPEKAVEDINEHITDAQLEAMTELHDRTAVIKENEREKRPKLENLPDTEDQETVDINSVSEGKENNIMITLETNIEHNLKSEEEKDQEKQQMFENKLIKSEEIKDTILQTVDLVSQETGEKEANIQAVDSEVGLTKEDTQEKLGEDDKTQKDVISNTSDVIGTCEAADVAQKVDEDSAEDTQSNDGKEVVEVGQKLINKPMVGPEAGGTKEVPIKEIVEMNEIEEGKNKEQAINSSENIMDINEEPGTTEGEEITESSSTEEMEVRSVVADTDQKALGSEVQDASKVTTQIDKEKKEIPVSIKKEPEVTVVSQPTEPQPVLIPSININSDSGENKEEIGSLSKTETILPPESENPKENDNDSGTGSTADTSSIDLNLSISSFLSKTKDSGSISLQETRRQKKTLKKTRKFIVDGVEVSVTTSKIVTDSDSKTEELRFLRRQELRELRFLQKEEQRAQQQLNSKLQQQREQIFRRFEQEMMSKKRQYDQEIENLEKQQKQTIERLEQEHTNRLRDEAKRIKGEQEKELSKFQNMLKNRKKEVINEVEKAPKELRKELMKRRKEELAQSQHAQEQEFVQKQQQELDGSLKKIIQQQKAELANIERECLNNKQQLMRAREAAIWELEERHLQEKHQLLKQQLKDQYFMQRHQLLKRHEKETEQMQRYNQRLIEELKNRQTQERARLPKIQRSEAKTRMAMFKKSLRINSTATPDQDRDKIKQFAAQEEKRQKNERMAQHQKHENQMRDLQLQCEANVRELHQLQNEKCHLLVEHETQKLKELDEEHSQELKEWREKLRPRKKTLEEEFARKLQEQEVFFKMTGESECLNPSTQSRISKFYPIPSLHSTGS
# [9] = target: Ribosomal protein S6 kinase alpha-3 (Homo sapiens) (UniProt P51812)
# Sequence of Ribosomal protein S6 kinase alpha-3 (Homo sapiens) (P51812 whole entry): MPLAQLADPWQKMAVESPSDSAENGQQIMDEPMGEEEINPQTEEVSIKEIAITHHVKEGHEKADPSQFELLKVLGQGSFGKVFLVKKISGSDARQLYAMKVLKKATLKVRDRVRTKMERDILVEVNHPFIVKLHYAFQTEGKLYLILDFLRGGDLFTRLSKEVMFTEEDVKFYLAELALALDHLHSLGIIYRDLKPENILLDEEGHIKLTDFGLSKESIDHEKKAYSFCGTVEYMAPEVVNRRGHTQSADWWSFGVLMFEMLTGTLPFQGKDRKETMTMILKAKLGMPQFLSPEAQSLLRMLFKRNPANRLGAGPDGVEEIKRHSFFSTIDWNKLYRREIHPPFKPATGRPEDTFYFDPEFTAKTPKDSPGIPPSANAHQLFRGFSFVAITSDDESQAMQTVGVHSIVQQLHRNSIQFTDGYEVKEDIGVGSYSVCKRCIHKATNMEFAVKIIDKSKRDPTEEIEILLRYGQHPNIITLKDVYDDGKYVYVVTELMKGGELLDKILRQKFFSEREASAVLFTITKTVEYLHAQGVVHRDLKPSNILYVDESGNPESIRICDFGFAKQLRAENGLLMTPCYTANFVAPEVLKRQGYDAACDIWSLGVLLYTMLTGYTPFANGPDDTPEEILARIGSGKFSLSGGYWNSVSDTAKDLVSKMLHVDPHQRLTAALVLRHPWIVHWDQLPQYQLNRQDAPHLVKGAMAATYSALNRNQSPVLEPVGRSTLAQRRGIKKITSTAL
# [10] = target: Calcium/calmodulin-dependent protein kinase type 1D (Homo sapiens) (UniProt Q8IU85)
# [11] = target: Serine/threonine-protein kinase 38 (Homo sapiens) (UniProt Q15208)
# Sequence of Serine/threonine-protein kinase 38 (Homo sapiens) (Q15208 2-465 limits assumed): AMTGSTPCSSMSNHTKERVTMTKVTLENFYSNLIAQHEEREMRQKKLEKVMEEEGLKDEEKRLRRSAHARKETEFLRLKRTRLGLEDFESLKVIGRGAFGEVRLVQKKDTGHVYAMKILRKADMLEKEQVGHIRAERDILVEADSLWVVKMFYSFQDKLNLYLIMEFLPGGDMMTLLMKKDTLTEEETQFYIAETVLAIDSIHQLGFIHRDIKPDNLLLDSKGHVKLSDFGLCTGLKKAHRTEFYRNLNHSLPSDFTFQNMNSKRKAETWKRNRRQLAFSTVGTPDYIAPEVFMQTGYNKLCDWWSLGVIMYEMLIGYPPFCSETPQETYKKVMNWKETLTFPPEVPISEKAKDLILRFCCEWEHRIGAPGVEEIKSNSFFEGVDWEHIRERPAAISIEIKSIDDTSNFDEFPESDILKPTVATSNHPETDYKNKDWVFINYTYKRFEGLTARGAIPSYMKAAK
# [12] = target: Calcium/calmodulin-dependent protein kinase kinase 2 (Homo sapiens, UniProt Q96RR4)
# [13] = target: Calcium/calmodulin-dependent protein kinase type II subunit delta (Homo sapiens) (UniProt Q13557)
# [14] = target: Glycogen synthase kinase-3 beta (Homo sapiens, UniProt P49841)
# [15] = target: T1, Lymphokine-activated killer T-cell-originated protein kinase (Homo sapiens) (UniProt Q96KB5)
# T1 sequence (whole entry): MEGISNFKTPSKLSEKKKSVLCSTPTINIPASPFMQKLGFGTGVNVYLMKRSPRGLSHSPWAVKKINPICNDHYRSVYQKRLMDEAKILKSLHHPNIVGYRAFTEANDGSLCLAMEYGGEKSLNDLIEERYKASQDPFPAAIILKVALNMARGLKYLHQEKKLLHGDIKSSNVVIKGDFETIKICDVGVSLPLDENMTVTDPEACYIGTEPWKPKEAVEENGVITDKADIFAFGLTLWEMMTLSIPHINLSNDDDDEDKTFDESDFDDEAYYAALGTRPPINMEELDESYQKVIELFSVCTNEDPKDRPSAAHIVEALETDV
# [16] = target: Calcium/calmodulin-dependent protein kinase type 1G (Homo sapiens) (UniProt Q96NX5)
# Sequence of Calcium/calmodulin-dependent protein kinase type 1G (Homo sapiens) (Q96NX5 whole entry, canonical isoform): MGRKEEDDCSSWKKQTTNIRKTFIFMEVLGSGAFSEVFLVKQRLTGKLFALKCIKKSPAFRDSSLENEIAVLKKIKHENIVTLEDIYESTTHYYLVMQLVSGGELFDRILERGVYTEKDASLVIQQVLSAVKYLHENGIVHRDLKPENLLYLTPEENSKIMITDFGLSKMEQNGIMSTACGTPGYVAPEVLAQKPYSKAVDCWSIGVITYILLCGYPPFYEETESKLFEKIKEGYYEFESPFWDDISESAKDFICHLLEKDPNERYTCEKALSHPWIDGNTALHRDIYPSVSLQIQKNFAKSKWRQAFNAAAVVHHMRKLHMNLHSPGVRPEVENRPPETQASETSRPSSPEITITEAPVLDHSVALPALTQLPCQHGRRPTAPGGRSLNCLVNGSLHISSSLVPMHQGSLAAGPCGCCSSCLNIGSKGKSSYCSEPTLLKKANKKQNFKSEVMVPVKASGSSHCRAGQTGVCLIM
# [17] = target: Casein kinase I isoform gamma-2 (Homo sapiens) (UniProt P78368)
# [18] = target: Cyclin-dependent kinase 6 (Homo sapiens) (UniProt Q00534)
# [19] = target: Dual specificity protein kinase CLK1 (Homo sapiens) (UniProt P49759)
# Sequence of Dual specificity protein kinase CLK1 (Homo sapiens) (P49759 whole entry, looked up): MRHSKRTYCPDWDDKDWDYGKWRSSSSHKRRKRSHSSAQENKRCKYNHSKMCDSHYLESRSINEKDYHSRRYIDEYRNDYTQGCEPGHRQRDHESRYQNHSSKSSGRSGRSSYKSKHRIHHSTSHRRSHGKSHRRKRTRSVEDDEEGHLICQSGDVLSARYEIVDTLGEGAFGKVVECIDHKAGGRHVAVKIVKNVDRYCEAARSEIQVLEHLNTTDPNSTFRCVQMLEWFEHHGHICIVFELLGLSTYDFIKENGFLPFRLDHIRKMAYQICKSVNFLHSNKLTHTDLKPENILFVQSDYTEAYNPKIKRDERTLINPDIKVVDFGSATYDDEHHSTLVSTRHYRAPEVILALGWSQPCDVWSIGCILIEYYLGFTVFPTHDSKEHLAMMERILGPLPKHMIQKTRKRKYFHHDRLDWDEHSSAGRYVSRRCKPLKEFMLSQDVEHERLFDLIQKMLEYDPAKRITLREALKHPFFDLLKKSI
# [20] = target: T2, Myotonin-protein kinase (Homo sapiens) (UniProt Q09013)
# T2 sequence (whole entry): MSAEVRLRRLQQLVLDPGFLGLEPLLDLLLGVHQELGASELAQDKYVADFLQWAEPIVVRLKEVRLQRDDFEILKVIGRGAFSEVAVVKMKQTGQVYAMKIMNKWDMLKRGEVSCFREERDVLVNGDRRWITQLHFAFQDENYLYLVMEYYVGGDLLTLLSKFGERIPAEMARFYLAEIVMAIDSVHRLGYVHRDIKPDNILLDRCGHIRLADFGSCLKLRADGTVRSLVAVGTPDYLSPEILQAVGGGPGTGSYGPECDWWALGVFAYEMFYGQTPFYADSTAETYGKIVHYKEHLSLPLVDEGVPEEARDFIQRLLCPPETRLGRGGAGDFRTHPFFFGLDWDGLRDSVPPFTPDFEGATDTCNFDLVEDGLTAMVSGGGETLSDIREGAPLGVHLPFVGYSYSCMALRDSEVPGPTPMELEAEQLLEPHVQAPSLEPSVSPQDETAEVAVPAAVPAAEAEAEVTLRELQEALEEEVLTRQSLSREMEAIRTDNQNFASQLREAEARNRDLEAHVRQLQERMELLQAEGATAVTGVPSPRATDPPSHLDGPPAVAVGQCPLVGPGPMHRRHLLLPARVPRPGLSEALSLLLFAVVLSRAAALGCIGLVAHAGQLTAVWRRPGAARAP
# [21] = target: T3, Serine/threonine-protein kinase Nek2 (Homo sapiens) (UniProt P51955)
# T3 sequence (whole entry): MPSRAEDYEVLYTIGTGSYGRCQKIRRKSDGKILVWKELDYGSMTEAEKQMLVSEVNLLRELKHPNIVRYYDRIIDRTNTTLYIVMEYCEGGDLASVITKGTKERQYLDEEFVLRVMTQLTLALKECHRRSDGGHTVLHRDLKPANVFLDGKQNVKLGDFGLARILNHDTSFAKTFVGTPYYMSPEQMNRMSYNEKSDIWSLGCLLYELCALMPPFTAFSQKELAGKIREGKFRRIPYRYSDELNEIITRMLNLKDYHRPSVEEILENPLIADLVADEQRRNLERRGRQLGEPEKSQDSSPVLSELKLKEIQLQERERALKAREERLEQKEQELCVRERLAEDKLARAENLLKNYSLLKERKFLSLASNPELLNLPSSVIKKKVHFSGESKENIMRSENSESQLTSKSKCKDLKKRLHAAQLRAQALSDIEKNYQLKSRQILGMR
# [22] = target: Dual specificity mitogen-activated protein kinase kinase 2 (Homo sapiens, UniProt P36507)
# Sequence of Dual specificity mitogen-activated protein kinase kinase 2 (P36507 whole entry): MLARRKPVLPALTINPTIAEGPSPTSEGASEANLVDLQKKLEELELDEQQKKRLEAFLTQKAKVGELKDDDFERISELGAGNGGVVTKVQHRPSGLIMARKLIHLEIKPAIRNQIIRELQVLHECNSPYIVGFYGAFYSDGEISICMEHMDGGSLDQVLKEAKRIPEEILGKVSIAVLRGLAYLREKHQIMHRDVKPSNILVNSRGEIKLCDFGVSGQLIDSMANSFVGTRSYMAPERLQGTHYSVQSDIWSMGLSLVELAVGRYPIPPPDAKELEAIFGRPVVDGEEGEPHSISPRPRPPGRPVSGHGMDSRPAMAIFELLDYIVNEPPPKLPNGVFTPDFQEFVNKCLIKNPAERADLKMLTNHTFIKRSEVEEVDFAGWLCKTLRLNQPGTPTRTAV
# [23] = target: Calcium/calmodulin-dependent protein kinase type II subunit alpha (Homo sapiens) (UniProt Q9UQM7)
# Sequence of Calcium/calmodulin-dependent protein kinase type II subunit alpha (Homo sapiens) (Q9UQM7 whole entry): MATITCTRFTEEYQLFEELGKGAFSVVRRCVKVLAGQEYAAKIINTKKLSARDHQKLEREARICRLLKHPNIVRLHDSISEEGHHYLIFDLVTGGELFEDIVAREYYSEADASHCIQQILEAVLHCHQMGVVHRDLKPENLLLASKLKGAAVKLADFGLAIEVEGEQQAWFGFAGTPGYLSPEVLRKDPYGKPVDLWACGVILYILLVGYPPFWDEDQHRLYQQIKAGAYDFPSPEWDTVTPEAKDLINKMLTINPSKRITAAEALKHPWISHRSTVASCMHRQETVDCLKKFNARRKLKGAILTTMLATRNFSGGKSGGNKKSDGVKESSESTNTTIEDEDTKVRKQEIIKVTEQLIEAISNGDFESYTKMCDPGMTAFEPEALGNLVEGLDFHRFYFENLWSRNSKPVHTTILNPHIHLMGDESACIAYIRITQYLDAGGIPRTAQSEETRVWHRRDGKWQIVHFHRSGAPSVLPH
# [24] = target: Serine/threonine-protein kinase pim-2 (Homo sapiens, UniProt Q9P1W9)
# [25] = target: Dual specificity protein kinase CLK3 (Homo sapiens) (UniProt P49761)
# [26] = target: Cyclin-dependent kinase 16 (Homo sapiens) (UniProt Q00536)
# Sequence of Serine/threonine-protein kinase Chk2 (O96017 whole entry, canonical isoform): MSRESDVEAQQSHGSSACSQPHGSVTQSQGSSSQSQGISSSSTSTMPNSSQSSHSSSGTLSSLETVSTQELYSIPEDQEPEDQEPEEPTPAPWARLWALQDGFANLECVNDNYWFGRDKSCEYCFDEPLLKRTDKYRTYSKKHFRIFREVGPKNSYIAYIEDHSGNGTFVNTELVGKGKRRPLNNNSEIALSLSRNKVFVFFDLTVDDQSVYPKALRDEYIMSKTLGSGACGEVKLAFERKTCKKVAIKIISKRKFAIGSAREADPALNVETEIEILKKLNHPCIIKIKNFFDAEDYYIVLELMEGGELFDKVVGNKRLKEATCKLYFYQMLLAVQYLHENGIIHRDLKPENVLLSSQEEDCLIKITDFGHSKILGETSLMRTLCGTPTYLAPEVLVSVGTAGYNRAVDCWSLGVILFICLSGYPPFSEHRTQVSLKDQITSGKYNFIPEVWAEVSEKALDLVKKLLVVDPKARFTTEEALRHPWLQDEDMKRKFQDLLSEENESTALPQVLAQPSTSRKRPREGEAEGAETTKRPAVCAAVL
Structure (SMILES),ΔTm [1],ΔTm [2],ΔTm [3],ΔTm [4],ΔTm [5],ΔTm [6],ΔTm [7],ΔTm [8],ΔTm [9],ΔTm [10],ΔTm [11],ΔTm [12],ΔTm [13],ΔTm [14],ΔTm [15],ΔTm [16],ΔTm [17],ΔTm [18],ΔTm [19],ΔTm [20],further results
Nc1n[nH]c2nc3ccccc3nc12 [QUINOXALINE1],0.7 °C,0.5 °C,0.7 °C,2.2 °C,0.3 °C,1.4 °C,-0.8 °C,2 °C,0.9 °C,0.2 °C,0.4 °C,0.2 °C,-0.1 °C,2.2 °C,0.5 °C,0.2 °C,0.4 °C,0.6 °C,1.6 °C,-0.1 °C,ΔTm [21]: 1.2 °C; ΔTm [22]: 0.1 °C; ΔTm [23]: 0.7 °C; ΔTm [24]: 1.3 °C; ΔTm [25]: 0.5 °C; ΔTm [26]: -0.1 °C
CCCNC(=O)Nc1ccc(Oc2ncnc3cc(OC)c(OC)cc23)cc1Cl [KRN-633],-0.1 °C,2.4 °C,0.8 °C,1 °C,0.1 °C,-0.2 °C,0.5 °C,0.5 °C,10.7 °C,0.5 °C,1.6 °C,0.7 °C,0.3 °C,0.1 °C,0.2 °C,1 °C,0.5 °C,0.6 °C,-1.7 °C,0.6 °C,ΔTm [21]: -0.3 °C; ΔTm [22]: 0.2 °C; ΔTm [23]: 0.8 °C; ΔTm [24]: 0.2 °C; ΔTm [25]: 0.1 °C; ΔTm [26]: -0.1 °C
CN(C)S(=O)(=O)c1ccc2c(c1)/C(=C/c1cc3c([nH]1)CCCC3)C(=O)N2,1 °C,4.7 °C,0.9 °C,3.6 °C,0.1 °C,4.8 °C,0.5 °C,6.2 °C,-0.1 °C,1.4 °C,2.2 °C,7.6 °C,3.2 °C,-0.3 °C,1 °C,0.2 °C,0.1 °C,-0.9 °C,4.3 °C,-0.3 °C,ΔTm [21]: 2.8 °C; ΔTm [22]: 7 °C; ΔTm [23]: 3 °C; ΔTm [24]: 0.4 °C; ΔTm [25]: 4.1 °C; ΔTm [26]: 0.1 °C
NS(=O)(=O)c1ccc(Nc2nc(OCC3CCCCC3)c3nc[nH]c3n2)cc1,5.7 °C,2.5 °C,2.6 °C,9.5 °C,5.1 °C,2.7 °C,0.4 °C,2.2 °C,1.4 °C,0.8 °C,1.5 °C,0.8 °C,0.2 °C,4.3 °C,0.9 °C,1.6 °C,2.5 °C,4.9 °C,3.9 °C,3.2 °C,ΔTm [21]: 4.9 °C; ΔTm [22]: 0.8 °C; ΔTm [23]: 0.6 °C; ΔTm [24]: 0.6 °C; ΔTm [25]: 1.3 °C; ΔTm [26]: 3.2 °C
Brc1c(Br)c(Br)c2[nH]nnc2c1Br [TETRABROMOBENZOTRIAZOLE],1.3 °C,0.5 °C,-0.4 °C,0.7 °C,2.3 °C,2.4 °C,3.7 °C,1.2 °C,1.7 °C,-1.6 °C,1.3 °C,-0.5 °C,-0.7 °C,2.4 °C,-0.3 °C,-0.7 °C,0.3 °C,0.3 °C,3.6 °C,1.1 °C,ΔTm [21]: -0.1 °C; ΔTm [22]: 1.6 °C; ΔTm [23]: 1.2 °C; ΔTm [24]: 4.2 °C; ΔTm [25]: 2 °C; ΔTm [26]: -0.5 °C
CC(C)n1cnc2/c(=N/c3cccc(Cl)c3)nc(NCCO)[nH]c21,0.9 °C,1.7 °C,6.1 °C,3.7 °C,7.5 °C,4.5 °C,-0.3 °C,1.6 °C,2.1 °C,0.7 °C,2.7 °C,2.3 °C,-0.4 °C,0.8 °C,-0.1 °C,0.1 °C,4.5 °C,0 °C,5.1 °C,0.1 °C,ΔTm [21]: 1.3 °C; ΔTm [22]: 0.2 °C; ΔTm [23]: 0.7 °C; ΔTm [24]: 0.6 °C; ΔTm [25]: 4 °C; ΔTm [26]: 0.1 °C
Cc1nc2sccn2c(=O)c1CCN1CCC(=C(c2ccccc2)c2ccc(F)cc2)CC1,0.4 °C,0.4 °C,-0.2 °C,4.8 °C,0.6 °C,2.8 °C,6.6 °C,1 °C,2.9 °C,0.5 °C,0.6 °C,0.6 °C,-0.4 °C,2.6 °C,-0.5 °C,0.4 °C,0.3 °C,0 °C,6.5 °C,0.1 °C,ΔTm [21]: 0.1 °C; ΔTm [22]: 1.8 °C; ΔTm [23]: 1.3 °C; ΔTm [24]: 3.3 °C; ΔTm [25]: 3 °C; ΔTm [26]: -0.5 °C
CCOC(=O)c1cnc2oc3ccc(O)cc3c2c1-c1ccccc1,0 °C,0.8 °C,1.2 °C,8.6 °C,0.8 °C,3.5 °C,5.1 °C,2.3 °C,1 °C,0.4 °C,0.2 °C,2.3 °C,-0.1 °C,4.3 °C,-0.2 °C,0.1 °C,1.1 °C,0.1 °C,6.2 °C,-0.4 °C,ΔTm [21]: 0.9 °C; ΔTm [22]: 0.5 °C; ΔTm [23]: 0.7 °C; ΔTm [24]: 6.3 °C; ΔTm [25]: 1 °C; ΔTm [26]: -0.6 °C

# From ChEMBL document CHEMBL1145498, “A systematic interaction map of validated kinase inhibitors with Ser/Thr kinases” (Proc Natl Acad Sci U S A, 2007)
